Columns and labels:
[1] = biological target: Ribosomal protein S6 kinase beta-1 (Homo sapiens) (UniProt P23443); conditions: Compound concentration 1000.0 nM
[2] = biological target: Tyrosine-protein kinase Fes/Fps (Homo sapiens) (UniProt P07332); conditions: Compound concentration 1000.0 nM
[3] = biological target: Mitogen-activated protein kinase kinase kinase 13 (Homo sapiens) (UniProt O43283); conditions: Compound concentration 1000.0 nM
[4] = biological target: Sigma non-opioid intracellular receptor 1 (Homo sapiens) (UniProt Q99720); conditions: Compound concentration 10.0 uM
Sequence of Sigma non-opioid intracellular receptor 1 (Homo sapiens) (Q99720 whole entry, canonical isoform): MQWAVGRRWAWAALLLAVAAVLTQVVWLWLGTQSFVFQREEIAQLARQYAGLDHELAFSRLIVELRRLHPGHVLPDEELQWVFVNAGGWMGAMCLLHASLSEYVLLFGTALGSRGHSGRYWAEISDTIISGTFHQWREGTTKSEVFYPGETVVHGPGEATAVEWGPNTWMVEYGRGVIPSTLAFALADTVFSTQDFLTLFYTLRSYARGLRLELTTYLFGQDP

[5] = biological target: Phosphatidylinositol 4,5-bisphosphate 3-kinase catalytic subunit beta isoform (Homo sapiens) (UniProt P42338); conditions: Compound concentration 1000.0 nM
[6] = biological target: Myosin light chain kinase (Homo sapiens) (UniProt Q32MK0); conditions: Compound concentration 1000.0 nM
[7] = biological target: Ribosomal protein S6 kinase alpha-4 (Homo sapiens) (UniProt O75676); conditions: Compound concentration 1000.0 nM
[8] = biological target: Serine/threonine-protein kinase TAO3 (Homo sapiens) (UniProt Q9H2K8); conditions: Compound concentration 1000.0 nM
[9] = biological target: Serine/threonine-protein kinase 32B (Homo sapiens) (UniProt Q9NY57); conditions: Compound concentration 1000.0 nM
Sequence of Serine/threonine-protein kinase 32B (Homo sapiens) (Q9NY57 whole entry): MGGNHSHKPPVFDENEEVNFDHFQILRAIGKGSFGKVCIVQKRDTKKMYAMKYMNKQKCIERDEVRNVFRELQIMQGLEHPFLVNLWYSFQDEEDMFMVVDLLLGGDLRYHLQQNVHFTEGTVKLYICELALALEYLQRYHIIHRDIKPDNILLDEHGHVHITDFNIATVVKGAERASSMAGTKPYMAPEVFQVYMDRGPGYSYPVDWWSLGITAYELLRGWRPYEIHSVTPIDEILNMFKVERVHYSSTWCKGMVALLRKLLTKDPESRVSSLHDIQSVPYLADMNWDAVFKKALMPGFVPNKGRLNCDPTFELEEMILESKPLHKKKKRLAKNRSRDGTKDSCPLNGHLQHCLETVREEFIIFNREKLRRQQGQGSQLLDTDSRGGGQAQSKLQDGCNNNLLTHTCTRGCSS

[10] = test system: Fibroblast growth factor receptor 3 (Homo sapiens), P22607 [G697C]; conditions: Compound concentration 1000.0 nM
Sequence of Fibroblast growth factor receptor 3 (Homo sapiens), P22607 [G697C] (P22607 whole entry G697C): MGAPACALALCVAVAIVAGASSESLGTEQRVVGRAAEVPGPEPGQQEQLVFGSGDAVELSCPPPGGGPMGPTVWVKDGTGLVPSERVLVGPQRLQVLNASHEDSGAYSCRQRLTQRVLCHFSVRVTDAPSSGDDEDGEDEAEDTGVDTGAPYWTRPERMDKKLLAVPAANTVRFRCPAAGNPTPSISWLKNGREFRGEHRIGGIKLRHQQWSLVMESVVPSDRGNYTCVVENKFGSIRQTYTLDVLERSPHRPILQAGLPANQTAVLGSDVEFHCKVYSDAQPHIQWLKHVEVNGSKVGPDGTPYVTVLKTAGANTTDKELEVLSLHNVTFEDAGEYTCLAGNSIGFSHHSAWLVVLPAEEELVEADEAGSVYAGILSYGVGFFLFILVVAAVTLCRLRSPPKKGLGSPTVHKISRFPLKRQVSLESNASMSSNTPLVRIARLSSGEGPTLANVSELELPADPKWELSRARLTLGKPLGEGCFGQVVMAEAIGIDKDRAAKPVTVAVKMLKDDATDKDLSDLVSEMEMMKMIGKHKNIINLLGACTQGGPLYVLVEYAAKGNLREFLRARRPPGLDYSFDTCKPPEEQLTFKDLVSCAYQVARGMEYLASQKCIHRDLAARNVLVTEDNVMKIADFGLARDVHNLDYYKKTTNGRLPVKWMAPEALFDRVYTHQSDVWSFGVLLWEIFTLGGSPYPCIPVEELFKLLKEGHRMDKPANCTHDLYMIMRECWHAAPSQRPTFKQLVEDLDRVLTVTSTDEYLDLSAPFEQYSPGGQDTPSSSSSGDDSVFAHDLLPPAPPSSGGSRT

[11] = biological target: TGF-beta receptor type-2 (Homo sapiens) (UniProt P37173); conditions: Compound concentration 1000.0 nM
[12] = biological target: Serine/threonine-protein kinase Nek2 (Homo sapiens) (UniProt P51955); conditions: Compound concentration 1000.0 nM
[13] = biological target: Inhibitor of nuclear factor kappa-B kinase subunit beta (Homo sapiens) (UniProt O14920); conditions: Compound concentration 1000.0 nM
[14] = biological target: NT-3 growth factor receptor (Homo sapiens) (UniProt Q16288); conditions: Compound concentration 1000.0 nM
Sequence of NT-3 growth factor receptor (Homo sapiens) (Q16288 32-839 limits assumed): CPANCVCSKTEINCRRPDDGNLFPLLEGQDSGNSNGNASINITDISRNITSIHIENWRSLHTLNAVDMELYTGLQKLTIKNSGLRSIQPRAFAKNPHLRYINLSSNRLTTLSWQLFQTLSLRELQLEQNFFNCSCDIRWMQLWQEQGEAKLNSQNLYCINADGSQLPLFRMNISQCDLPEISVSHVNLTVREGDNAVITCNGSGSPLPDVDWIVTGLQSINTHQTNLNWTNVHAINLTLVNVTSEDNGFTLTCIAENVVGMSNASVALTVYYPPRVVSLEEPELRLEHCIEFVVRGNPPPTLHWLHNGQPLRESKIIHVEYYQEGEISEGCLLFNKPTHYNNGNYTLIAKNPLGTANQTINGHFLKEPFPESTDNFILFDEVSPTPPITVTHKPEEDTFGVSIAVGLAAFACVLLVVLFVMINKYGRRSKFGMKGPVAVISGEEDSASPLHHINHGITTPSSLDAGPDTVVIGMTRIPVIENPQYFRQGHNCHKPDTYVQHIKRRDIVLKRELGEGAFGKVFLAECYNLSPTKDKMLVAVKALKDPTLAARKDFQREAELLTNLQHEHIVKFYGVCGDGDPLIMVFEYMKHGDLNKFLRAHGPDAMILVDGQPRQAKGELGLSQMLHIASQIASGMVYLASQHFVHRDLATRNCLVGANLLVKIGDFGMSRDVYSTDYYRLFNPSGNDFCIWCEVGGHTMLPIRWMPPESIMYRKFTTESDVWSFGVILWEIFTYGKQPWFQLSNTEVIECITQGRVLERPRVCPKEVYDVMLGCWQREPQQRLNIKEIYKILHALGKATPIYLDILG

[15] = biological target: Serine/threonine-protein kinase 35 (Homo sapiens) (UniProt Q8TDR2); conditions: Compound concentration 1000.0 nM
[16] = biological target: Serine/threonine-protein kinase RIO2 (Homo sapiens) (UniProt Q9BVS4); conditions: Compound concentration 1000.0 nM
[17] = test system: eIF-2-alpha kinase GCN2 (Homo sapiens), Q9P2K8 [S808G]; conditions: Compound concentration 1000.0 nM
[18] = biological target: Myosin light chain kinase, smooth muscle (Homo sapiens) (UniProt Q15746); conditions: Compound concentration 1000.0 nM
[19] = biological target: Casein kinase I isoform gamma-2 (Homo sapiens) (UniProt P78368); conditions: Compound concentration 1000.0 nM
Sequence of Casein kinase I isoform gamma-2 (Homo sapiens) (P78368 whole entry, looked up, canonical isoform): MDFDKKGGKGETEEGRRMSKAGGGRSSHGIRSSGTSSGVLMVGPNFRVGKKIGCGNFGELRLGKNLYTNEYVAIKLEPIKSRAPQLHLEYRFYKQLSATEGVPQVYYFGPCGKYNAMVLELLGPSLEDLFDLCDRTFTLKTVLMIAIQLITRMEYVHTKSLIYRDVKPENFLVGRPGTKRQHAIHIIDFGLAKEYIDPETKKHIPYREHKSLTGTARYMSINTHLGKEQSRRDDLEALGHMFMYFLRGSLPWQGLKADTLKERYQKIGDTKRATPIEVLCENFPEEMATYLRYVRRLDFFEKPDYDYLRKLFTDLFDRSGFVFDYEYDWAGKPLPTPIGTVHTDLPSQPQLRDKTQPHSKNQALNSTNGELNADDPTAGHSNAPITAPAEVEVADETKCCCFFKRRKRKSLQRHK

[20] = biological target: Mitogen-activated protein kinase 15 (Homo sapiens) (UniProt Q8TD08); conditions: Compound concentration 1000.0 nM
[21] = test system: Epidermal growth factor receptor (Homo sapiens), P00533 [L861Q]; conditions: Compound concentration 1000.0 nM
[22] = test system: Proto-oncogene tyrosine-protein kinase receptor Ret (Homo sapiens), P07949 [V804M]; conditions: Compound concentration 1000.0 nM
[23] = biological target: STE20-like serine/threonine-protein kinase (Homo sapiens) (UniProt Q9H2G2); conditions: Compound concentration 1000.0 nM
[24] = biological target: Serine/threonine-protein kinase Chk2 (Homo sapiens) (UniProt O96017); conditions: Compound concentration 1000.0 nM
[25] = biological target: Beta-3 adrenergic receptor (Homo sapiens) (UniProt P13945); conditions: Compound concentration 10.0 uM
[26] = biological target: Dual specificity mitogen-activated protein kinase kinase 4 (Homo sapiens) (UniProt P45985); conditions: Compound concentration 1000.0 nM
[27] = biological target: Phosphatidylinositol 3-kinase catalytic subunit type 3 (Homo sapiens) (UniProt Q8NEB9); conditions: Compound concentration 1000.0 nM
[28] = test system: Hepatocyte growth factor receptor (Homo sapiens), P08581 [M1250T]; conditions: Compound concentration 1000.0 nM
[29] = biological target: AP2-associated protein kinase 1 (Homo sapiens) (UniProt Q2M2I8); conditions: Compound concentration 1000.0 nM
[30] = biological target: Mitogen-activated protein kinase kinase kinase 9 (Homo sapiens) (UniProt P80192); conditions: Compound concentration 1000.0 nM
[31] = biological target: Serine/threonine-protein kinase DCLK2 (Homo sapiens) (UniProt Q8N568); conditions: Compound concentration 1000.0 nM
[32] = test system: Tyrosine-protein kinase ABL1 (Homo sapiens), P00519 [F317L]; conditions: Compound concentration 1000.0 nM
[33] = biological target: Ephrin type-A receptor 1 (Homo sapiens) (UniProt P21709); conditions: Compound concentration 1000.0 nM
[34] = biological target: Histamine H3 receptor (Homo sapiens) (UniProt Q9Y5N1); conditions: Compound concentration 10.0 uM
[35] = biological target: Tyrosine-protein kinase TXK (Homo sapiens) (UniProt P42681); conditions: Compound concentration 1000.0 nM
[36] = biological target: Mitogen-activated protein kinase kinase kinase 10 (Homo sapiens) (UniProt Q02779); conditions: Compound concentration 1000.0 nM
Sequence of Mitogen-activated protein kinase kinase kinase 10 (Homo sapiens) (Q02779 whole entry, looked up): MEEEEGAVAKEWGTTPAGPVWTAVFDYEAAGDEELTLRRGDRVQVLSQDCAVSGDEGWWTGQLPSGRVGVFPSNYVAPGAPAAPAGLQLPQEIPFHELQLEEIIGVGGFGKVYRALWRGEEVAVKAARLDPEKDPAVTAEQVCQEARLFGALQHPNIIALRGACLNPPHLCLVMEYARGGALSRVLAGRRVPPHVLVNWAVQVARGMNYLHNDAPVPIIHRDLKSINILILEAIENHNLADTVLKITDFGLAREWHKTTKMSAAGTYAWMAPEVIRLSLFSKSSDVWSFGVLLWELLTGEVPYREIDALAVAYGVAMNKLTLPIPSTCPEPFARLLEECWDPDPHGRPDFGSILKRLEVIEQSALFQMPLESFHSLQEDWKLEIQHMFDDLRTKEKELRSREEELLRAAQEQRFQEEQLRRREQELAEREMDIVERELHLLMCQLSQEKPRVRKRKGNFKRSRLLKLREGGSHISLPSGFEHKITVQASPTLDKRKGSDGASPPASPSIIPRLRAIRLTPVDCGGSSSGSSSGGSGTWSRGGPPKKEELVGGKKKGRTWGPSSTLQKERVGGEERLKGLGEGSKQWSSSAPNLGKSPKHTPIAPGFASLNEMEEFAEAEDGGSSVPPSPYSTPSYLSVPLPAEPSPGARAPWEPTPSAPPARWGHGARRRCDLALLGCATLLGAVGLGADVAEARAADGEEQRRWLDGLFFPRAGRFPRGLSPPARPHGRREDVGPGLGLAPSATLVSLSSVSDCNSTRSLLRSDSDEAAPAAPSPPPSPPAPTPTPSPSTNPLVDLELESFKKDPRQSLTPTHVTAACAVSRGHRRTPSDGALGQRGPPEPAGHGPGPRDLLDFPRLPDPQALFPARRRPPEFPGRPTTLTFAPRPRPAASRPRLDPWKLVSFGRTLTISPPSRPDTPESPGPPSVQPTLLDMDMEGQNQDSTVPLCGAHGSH

[37] = test system: Receptor-type tyrosine-protein kinase FLT3 (Homo sapiens), P36888 [R834Q]; conditions: Compound concentration 1000.0 nM
[38] = biological target: MAP kinase-interacting serine/threonine-protein kinase 1 (Homo sapiens) (UniProt Q9BUB5); conditions: Compound concentration 1000.0 nM
[39] = biological target: Cyclin-dependent kinase 11B (Homo sapiens) (UniProt P21127); conditions: Compound concentration 1000.0 nM
Sequence of Cyclin-dependent kinase 11B (Homo sapiens) (P21127 whole entry): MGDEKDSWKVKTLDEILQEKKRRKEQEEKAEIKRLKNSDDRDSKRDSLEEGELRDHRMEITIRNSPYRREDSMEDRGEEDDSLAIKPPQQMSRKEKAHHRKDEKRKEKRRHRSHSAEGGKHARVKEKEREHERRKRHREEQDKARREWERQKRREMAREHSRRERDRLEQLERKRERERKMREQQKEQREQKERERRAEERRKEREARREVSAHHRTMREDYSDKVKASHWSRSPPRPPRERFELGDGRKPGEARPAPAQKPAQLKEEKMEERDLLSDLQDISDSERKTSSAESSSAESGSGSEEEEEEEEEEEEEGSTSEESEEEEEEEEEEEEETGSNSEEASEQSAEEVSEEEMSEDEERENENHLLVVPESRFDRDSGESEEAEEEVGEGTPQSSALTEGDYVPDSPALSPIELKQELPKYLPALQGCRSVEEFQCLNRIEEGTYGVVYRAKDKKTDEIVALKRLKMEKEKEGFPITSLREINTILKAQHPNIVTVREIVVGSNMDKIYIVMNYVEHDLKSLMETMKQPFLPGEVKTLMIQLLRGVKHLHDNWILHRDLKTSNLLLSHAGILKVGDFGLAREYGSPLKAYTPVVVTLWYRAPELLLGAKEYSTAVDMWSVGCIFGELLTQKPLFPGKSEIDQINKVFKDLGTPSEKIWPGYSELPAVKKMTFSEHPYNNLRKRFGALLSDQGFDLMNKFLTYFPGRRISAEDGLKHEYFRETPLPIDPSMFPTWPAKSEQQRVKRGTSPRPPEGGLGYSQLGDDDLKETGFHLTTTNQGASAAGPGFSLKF

[40] = test system: Tyrosine-protein kinase ABL1 (Homo sapiens), P00519 [T315I]; conditions: Compound concentration 1000.0 nM
[41] = test system: Mast/stem cell growth factor receptor Kit (Homo sapiens), P10721 [D816H]; conditions: Compound concentration 1000.0 nM
[42] = biological target: 5-hydroxytryptamine receptor 1E (Homo sapiens) (UniProt P28566); conditions: Compound concentration 10.0 uM
[43] = biological target: Serine/threonine-protein kinase 26 (Homo sapiens) (UniProt Q9P289); conditions: Compound concentration 1000.0 nM
[44] = biological target: Mitogen-activated protein kinase 10 (Homo sapiens) (UniProt P53779); conditions: Compound concentration 1000.0 nM
Sequence of Mitogen-activated protein kinase 10 (Homo sapiens) (P53779 whole entry): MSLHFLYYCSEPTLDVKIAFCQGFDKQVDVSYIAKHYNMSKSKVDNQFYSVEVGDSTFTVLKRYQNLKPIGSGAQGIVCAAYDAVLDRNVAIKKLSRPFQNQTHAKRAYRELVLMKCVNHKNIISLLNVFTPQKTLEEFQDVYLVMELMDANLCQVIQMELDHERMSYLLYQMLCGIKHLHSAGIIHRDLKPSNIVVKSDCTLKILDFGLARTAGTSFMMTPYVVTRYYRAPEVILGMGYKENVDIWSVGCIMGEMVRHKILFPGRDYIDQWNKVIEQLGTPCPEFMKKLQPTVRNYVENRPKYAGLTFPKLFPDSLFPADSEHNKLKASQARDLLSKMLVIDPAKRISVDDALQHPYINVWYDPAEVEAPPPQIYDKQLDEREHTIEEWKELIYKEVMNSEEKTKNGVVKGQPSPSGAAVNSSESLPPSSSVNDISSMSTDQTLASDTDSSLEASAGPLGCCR

[45] = biological target: Tyrosine-protein kinase JAK1 (Homo sapiens) (UniProt P23458); conditions: Compound concentration 1000.0 nM

CCS(=O)(=O)c1cc2cc(C[C@](O)(CC(C)(C)c3ccc(F)cc3C(N)=O)C(F)(F)F)[nH]c2cn1
inactive: residual activity [1] 82% | residual activity [2] 100% | residual activity [3] 90% | inhibition [4] 10.1% | residual activity [5] 98% | residual activity [6] 74% | residual activity [7] 94% | residual activity [8] 86% | residual activity [9] 94% | residual activity [10] 96% | residual activity [11] 100% | residual activity [12] 100% | residual activity [13] 91% | residual activity [14] 94% | residual activity [15] 100% | residual activity [16] 100% | residual activity [17] 89% | residual activity [18] 96% | residual activity [19] 93% | residual activity [20] 100% | residual activity [21] 100% | residual activity [22] 100% | residual activity [23] 100% | residual activity [24] 92% | inhibition [25] 13% | residual activity [26] 100% | residual activity [27] 100% | residual activity [28] 100% | residual activity [29] 100% | residual activity [30] 98% | residual activity [31] 100% | residual activity [32] 90% | residual activity [33] 100% | inhibition [34] 11.7% | residual activity [35] 90% | residual activity [36] 100% | residual activity [37] 100% | residual activity [38] 97% | residual activity [39] 100% | residual activity [40] 85% | residual activity [41] 98% | inhibition [42] 4.75% | residual activity [43] 94% | residual activity [44] 100% | residual activity [45] 95%

CCS(=O)(=O)c1cc2cc(C[C@@](O)(CC(C)(C)c3ccc(F)cc3C(N)=O)C(F)(F)F)[nH]c2cn1
active: residual activity [38] 46%
inactive: residual activity [1] 80% | residual activity [2] 100% | residual activity [3] 82% | inhibition [4] 8.26% | residual activity [5] 87% | residual activity [6] 80% | residual activity [7] 71% | residual activity [8] 78% | residual activity [9] 100% | residual activity [10] 100% | residual activity [11] 100% | residual activity [12] 94% | residual activity [13] 83% | residual activity [14] 82% | residual activity [15] 100% | residual activity [16] 95% | residual activity [17] 94% | residual activity [18] 93% | residual activity [19] 95% | residual activity [20] 100% | residual activity [21] 100% | residual activity [22] 74% | residual activity [23] 88% | residual activity [24] 84% | inhibition [25] 0.63% | residual activity [26] 100% | residual activity [27] 96% | residual activity [28] 90% | residual activity [29] 100% | residual activity [30] 96% | residual activity [31] 100% | residual activity [32] 61% | residual activity [33] 99% | inhibition [34] 11.7% | residual activity [35] 97% | residual activity [36] 65% | residual activity [37] 78% | residual activity [39] 77% | residual activity [40] 74% | residual activity [41] 51% | inhibition [42] 11.2% | residual activity [43] 91% | residual activity [44] 100% | residual activity [45] 90%
